Consider one compound from PMC12713470, “Design and Synthesis of Novel Chalcone Derivatives Targeting Bladder and Liver Cancer: Cytotoxicity Evaluation and Preliminary Mechanistic Studies” (ACS Omega, 2025).

What all share (assay type): cell-based, human
The subject of experiment [1] is HepG2 cells. The experiment is described as follows: Morphology assay, HepG2. The note with it: 2.15-18.50 μM, 48 h. The procedure: (§1) For the morphology assay, 2.0 × 10^5 cells were cultured in 12-well plates for 24 h to allow adherence. After this period, the cells were treated with the chalcone at concentrations of 2.15, 4.62, 9.25, and 18.50 μM for 48 h. After treatment, the cells were examined and photographed under an inverted microscope at 200× magnification.

The test system of experiment [2] is HepG2 cells. The experiment is described as follows: Cell cycle progression (propidium iodide flow cytometry), HepG2. The procedure: Cells were seeded in 12-well plates at a density of 1.0 × 10^5 cells per well and incubated for 24 h to allow adhesion. Following this initial incubation, the cells were treated with the chalcone at concentrations of 0.92, 2.15, 4.62, and 9.25 μM for an additional 48 h. After the treatment, the cells were washed, trypsinized, and collected along with the culture supernatant into Falcon tubes. The samples were then centrifuged at 1000 rpm for 10 min. After centrifugation, the supernatant was discarded, and the cell pellets were resuspended in 200 μL of propidium iodide staining solution before being transferred to cytometry tubes. These tubes were incubated on ice, in the dark, for 30 min. Flow cytometric analysis was performed on 20,000 events using a BD FACScalibur flow cytometer (BD Biosciences, Franklin Lakes, NJ, USA), and the data were analyzed using FlowJo software.
(A flow cytometer gives signals particle by particle.)

The test system of experiment [3] is T24 cells. The experiment is described as follows: Morphology assay, T24. The note with it: 2.15-18.50 μM, 48 h. The procedure:
as §1

The test system of experiment [4] is HepG2 cells. The experiment is described as follows: Apoptosis/necrosis analysis (annexin V/PI), HepG2. The conditions noted are these: 2.15, 4.62, or 9.25 μM, 48 h. How it is done:
(§2) Cells in the exponential growth phase were seeded in 12-well plates at a density of 1 × 10^5 cells per well in 3 mL of complete culture medium. Along with the experimental groups, four control groups were included: one without labeling, one labeled only with propidium iodide (PI), one labeled only with Annexin V, and one labeled with both PI and Annexin V. After 24 h, the cells were treated with the compound at concentrations of 2.15, 4.62, 9.25, and 18.50 μM for 48 h. Following the treatment period, the supernatant from each well was transferred to cytometry tubes and centrifuged at 1100 rpm for 10 min. The remaining adhered cells were washed with 1 mL of Hanks’ solution, and 500 μL of trypsin was added to detach the cells. The trypsin action was neutralized by adding 500 μL of complete medium, and the contents (detached cells plus precentrifuged supernatant) were collected into cytometry tubes, which were then centrifuged again at 1100 rpm for 10 min. After centrifugation, the supernatant was discarded. For labeling, Annexin V binding buffer was prepared by diluting 1 mL of component C in 5 mL of distilled water. Next, a 100 μg/mL propidium iodide working solution was prepared by diluting 5 μL of the 1 mg/mL stock (component B) in 45 μL of 1× buffer. […]

Experiment [5] concerns HepG2 cells. The experiment is described as follows: Cell migration (wound), HepG2. The note with it: 4.62 and 9.25 μM, 48 h. The procedure: The cells were cultured in DMEM (Sigma-Aldrich, St. Louis, USA) and supplemented with 10% fetal bovine serum (Cultilab Ltda., Campinas, Brazil) and antibiotics (amphotericin). They were incubated at 37 °C in a humidified atmosphere with 5% CO2. Control cell groups, which were not exposed to the compound, were included in the experiments and were conducted in triplicate. The chalcone was dissolved in dimethyl sulfoxide (DMSO) for the assays.
Cells were seeded in 24-well plates at a density of 1.0 × 10^5 cells per well and incubated for 24 h to allow attachment. After this incubation, a sterile 200 μL pipet tip was used to scrape the cell monolayer, creating a wound. The initial wound area was photographed using an inverted microscope equipped with a camera. Following this, the cells were washed with Hanks’ solution and treated with the glycosylated chalcone at concentrations of 2.15, 4.62, 9.25, and 18.50 μM for 48 h. At the end of the treatment period, the cells were photographed again, and migration into the wound area was assessed. The percentage of cell migration was quantified using ImageJ and GraphPad Prism software.

The subject of experiment [6] is T24 cells. Put plainly: Apoptosis/necrosis analysis (annexin V/PI), T24. The conditions noted are these: 18.50 μM, 48 h. The procedure:
as §2

Where [7] appears, read: all concentrations tested (0.92–4.62 μM).

As for `CCCc1cc(/C=C/C(=O)c2ccc(C)cc2)c(OC)c(OC)c1` [compound 3, (E)-3-(2,3-Dimethoxy-5-propylphenyl)-1-(p-tolyl)-prop-2-en-1-one], in experiment [1], the “morphology, HepG2” value is given as “reduction in cell density was observed”. In addition, the “fraction of cells in sub-G1, HepG2” value in experiment [2] (0.92–4.62 μM) is on record as “remained stable”. Besides, in experiment [2] (setting [7]), the “G2/M phase, HepG2” value is listed as “corresponding reduction” and the “population of cells in the G0/G1 phase, HepG2” value is on record as “significant increase”. Besides, the “morphology, T24” value in experiment [3] is “reduction in cell density was observed”. In addition, the “percentage of apoptotic or necrotic cells, HepG2” value in experiment [4] is recorded as “did not result in a significant increase”. The “cell migration, HepG2” value in experiment [5] is reported as “reduction of cell migration”. For the same compound, in experiment [6], the “cell viability (annexin V/PI), T24” value was “reduced cell viability” and the “proportion of cells undergoing early apoptosis, T24” value is “increased the proportion of cells undergoing early apoptosis”.
